Test [1] deals with THAIC construct in HEK293 cells with mouse TRα. The test can be described thus: Luciferase promoter assay in HEK293 cells transfected with THAIC and mouse TRα plasmid. The class given is cell-based, human. Particulars: HEK293 transfected with THAIC, SB100 and mouse TRα plasmid; 100 nM T3. Here is the method: The THAIC construct was transfected to the human HEK293 cells along with a pCMV(CAT)T7-SB100 Sleeping Beauty transposon expressing vector and a mouse TRα encoding plasmid. Transfection and cell culturing of HEK293 cells was performed according to our established protocol (36). (FIG. 10)
(B) We also used zeocin-assisted selection and obtained cultures stably expressing Luciferase and generated the HEK293-THAIC cell line stably expressing the TH action indicator construct of the THAM model. The reporter of the cell line is responsive to TH in a TR dependent manner.

The test system of test [2] is luciferase mRNA as a readout of TH action. The test can be described thus: Luciferase mRNA by TaqMan qPCR in the pituitary of line #23. The class given is in vivo, mouse. Particulars: TaqMan assay. Here is the method: Expression was assessed with TaqMan assay, Luciferase expression level was denominated with GAPDH expression used as housekeeping gene. Mean±SEM (n=5) *** p<0.0001 by t test.
We also studied whether detection of luciferase mRNA can be used to detect as a readout of TH action in the generated transgenic model. […] TaqMan qPCR was performed on a ViiA 7 Real-Time PCR System (Life Technologies) according to the instructions of the manufacturer. In short, reverse transcription was performed with High Capacity cDNA Reverse Transcriptase Kit (Applied Biosystems by Life Technologies) and concentration of the cDNA was determined using the Qubit 2.0 Fluorometer with the Qubit ssDNA Assay Kit (Life Technologies). A custom Luciferase coding probe was used along with a commercially available probe for Glyceraldehyde-3-phosphate dehydrogenase (GAPDH), later used as housekeeping gene.
(In qPCR the cycle at which signal appears reflects the starting amount.)

Test [3] has as its system TH action in live animals (Luciferase reporter). The test can be described thus: In vivo bioluminescence imaging of Luciferase in live line #4 mice. Further details: species or system mouse. Particulars: 1 μg/g BW T3 i.p., luciferin 24 h later. As to the method: Mean±SEM (n=4) ** p<0.01 **p<0.0001 by t test.
After 15 min, mice were anesthetized with ketamine followed by detection with […] In vivo Imaging System (PerkinElmer Waltham, Mass., USA).

Test [4] relates to thyroid hormone receptor isoform specific action (TRβ dominant liver, TRα dominant heart; Luciferase reporter). The test can be described thus: Testing TR isoform specific agonists: Luciferase activity in liver and heart of line #4 with decreased endogenous thyroid hormone. Format: in vivo, mouse. Particulars: T3 administration. As to the method:
FIG. 7. The transgenic mouse model is capable to detect thyroid hormone receptor isoform specific T3 actions. […] Mean±SEM (n=5) ** p<0.01 by t test.
We decreased the endogenous thyroid hormone levels in line #4 by administering methimazole and perchlorate (0.1% methimazole, 0.5% perchlorate) in the drinking water followed by the i.p. injection of 1.53 nM/g BW of GC-24, a TRβ specific agonist (35). Luciferase activity assay was performed using our established protocol (34) modified for tissue samples, that included treatment of mouse tissue with liquid nitrogen, followed by sonication. In vivo Luciferase imaging has been performed on an IVIS Lumina II In vivo Imaging System (PerkinElmer Waltham, Mass., USA) according to the instructions of the manufacturer.

Consider `N[C@@H](Cc1cc(I)c(Oc2ccc(O)c(I)c2)c(I)c1)C(=O)O` [T3, 3,5,3′-triiodothyronine], for which, in test [1], the “induction of Luciferase expression” value was “approximately 4 fold”. Moreover, the “induction of luciferase mRNA in the pituitary” value in test [2] (1 μg/g bw T3 i.p., GAPDH housekeeping) was approximately 50 fold. For the same compound, the “Luciferase mRNA level in the pituitary” value in test [2] (T3-treatment, denominated with GAPDH) is reported as “robustly increased”. Also, in test [3], the “reporter activity in the BAT and intestine (in vivo imaging)” value is “very intense increase”; the “reporter activity in the mandibular salivary gland (MSG) and skin of the tail and foot pads (in vivo imaging)” value is given as “up-regulated”. Also, the “luciferase activity in both tissues (liver and heart)” value in test [4] is “significant increase”.
